Tested on: 12 single or co-culture in vitro tissue models of primary cells
Test: Culture/co-culture cell model panel, extracellular biomarkers (DiscoveRx); as to CCL2/MCP-1: reference of the scale not given here; as to CXCL8/IL-8: reference of the scale not given here; as to CXCL9/MIG: reference of the scale not given here; as to M-CSF: reference of the scale not given here; as to PBMC Cytotoxicity: reference of the scale not given here; as to SRB: reference of the scale not given here; as to sTNF-alpha: reference of the scale not given here
Type: cell-based, human
Settings: for sTNF-alpha / B cell Proliferation / PBMC Cytotoxicity / Secreted IgG / sIL-2 / sIL-6 / sIL-17A / sIL-17F: BT; for CCL2/MCP-1 / CD54/ICAM-1 / CD106/VCAM-1 / CXCL8/IL-8 / CXCL9/MIG / CXCL10/IP-10 / CXCL11/I-TAC / Collagen I / Collagen III / EGFR / M-CSF / MMP-1 / PAI-I / Proliferation_72hr / SRB / TIMP-1 / TIMP-2: HDF3CGF stimulated fibroblasts

Cc1n[nH]c2ncc(C(=O)N3CCC[C@H]3c3ccc(Cl)cc3)cc12 [CMPD4]
sTNF-alpha (1.00E4 nM): 0.086 | B cell Proliferation (1.11E3 nM): 0.005 | PBMC Cytotoxicity (1.11E3 nM): 0.008 | Secreted IgG (1.11E3 nM): -0.271 | sIL-2 (1.11E3 nM): -0.010 | sIL-6 (1.11E3 nM): 0.011 | sIL-17A (1.11E3 nM): 0.280 | sIL-17F (1.11E3 nM): -0.402 | sTNF-alpha (1.11E3 nM): 0.063 | B cell Proliferation (1.23E2 nM): 0.027 | PBMC Cytotoxicity (1.23E2 nM): 0.018 | Secreted IgG (1.23E2 nM): -0.256 | sIL-2 (1.23E2 nM): 0.014 | sIL-6 (1.23E2 nM): 0.030 | sIL-17A (1.23E2 nM): 0.185 | sIL-17F (1.23E2 nM): -0.282 | sTNF-alpha (1.23E2 nM): 0.057 | B cell Proliferation (1.37E1 nM): -0.012 | PBMC Cytotoxicity (1.37E1 nM): 0.011 | Secreted IgG (1.37E1 nM): -0.141 | sIL-2 (1.37E1 nM): 0.014 | sIL-6 (1.37E1 nM): 0.027 | sIL-17A (1.37E1 nM): 0.187 | sIL-17F (1.37E1 nM): -0.0019 | sTNF-alpha (1.37E1 nM): 0.046 | B cell Proliferation (3.33E3 nM): -0.018 | PBMC Cytotoxicity (3.33E3 nM): -0.00188 | Secreted IgG (3.33E3 nM): -0.298 | sIL-2 (3.33E3 nM): -0.066 | sIL-6 (3.33E3 nM): 0.010 | sIL-17A (3.33E3 nM): 0.312 | sIL-17F (3.33E3 nM): -0.374 | sTNF-alpha (3.33E3 nM): 0.093 | B cell Proliferation (3.70E2 nM): -0.072 | PBMC Cytotoxicity (3.70E2 nM): -0.003 | Secreted IgG (3.70E2 nM): -0.278 | sIL-2 (3.70E2 nM): -0.005 | sIL-6 (3.70E2 nM): -0.000869 | sIL-17A (3.70E2 nM): 0.240 | sIL-17F (3.70E2 nM): -0.290 | sTNF-alpha (3.70E2 nM): 0.057 | B cell Proliferation (4.12E1 nM): -0.040 | PBMC Cytotoxicity (4.12E1 nM): -0.011 | Secreted IgG (4.12E1 nM): -0.161 | sIL-2 (4.12E1 nM): 0.032 | sIL-6 (4.12E1 nM): 0.045 | sIL-17A (4.12E1 nM): 0.263 | sIL-17F (4.12E1 nM): -0.163 | sTNF-alpha (4.12E1 nM): 0.025 | B cell Proliferation (4.57E0 nM): 0.00188 | PBMC Cytotoxicity (4.57E0 nM): 0.009 | Secreted IgG (4.57E0 nM): 0.00642 | sIL-2 (4.57E0 nM): 0.059 | sIL-6 (4.57E0 nM): -0.013 | sIL-17A (4.57E0 nM): 0.029 | sIL-17F (4.57E0 nM): -0.027 | sTNF-alpha (4.57E0 nM): 0.044 | CCL2/MCP-1 (1.00E4 nM): -0.062 | CD54/ICAM-1 (1.00E4 nM): -0.066 | CD106/VCAM-1 (1.00E4 nM): 0.015 | CXCL8/IL-8 (1.00E4 nM): -0.071 | CXCL9/MIG (1.00E4 nM): -0.035 | CXCL10/IP-10 (1.00E4 nM): 0.016 | CXCL11/I-TAC (1.00E4 nM): -0.012 | Collagen I (1.00E4 nM): 0.017 | Collagen III (1.00E4 nM): 0.028 | EGFR (1.00E4 nM): -0.096 | M-CSF (1.00E4 nM): -0.031 | MMP-1 (1.00E4 nM): -0.059 | PAI-I (1.00E4 nM): -0.088 | Proliferation_72hr (1.00E4 nM): -0.248 | SRB (1.00E4 nM): -0.00367 | TIMP-1 (1.00E4 nM): -0.111 | TIMP-2 (1.00E4 nM): -0.065 | CCL2/MCP-1 (1.11E3 nM): -0.100 | CD54/ICAM-1 (1.11E3 nM): -0.070 | CD106/VCAM-1 (1.11E3 nM): 0.050 | CXCL8/IL-8 (1.11E3 nM): -0.111 | CXCL9/MIG (1.11E3 nM): -0.045 | CXCL10/IP-10 (1.11E3 nM): 0.029 | CXCL11/I-TAC (1.11E3 nM): -0.023 | Collagen I (1.11E3 nM): -0.003 | Collagen III (1.11E3 nM): 0.052 | EGFR (1.11E3 nM): -0.103 | M-CSF (1.11E3 nM): -0.041 | MMP-1 (1.11E3 nM): -0.071 | PAI-I (1.11E3 nM): -0.065 | Proliferation_72hr (1.11E3 nM): -0.244 | SRB (1.11E3 nM): -0.002 | TIMP-1 (1.11E3 nM): -0.078 | TIMP-2 (1.11E3 nM): 0.064 | CCL2/MCP-1 (1.23E2 nM): -0.076 | CD54/ICAM-1 (1.23E2 nM): -0.078 | CD106/VCAM-1 (1.23E2 nM): 0.069 | CXCL8/IL-8 (1.23E2 nM): -0.081 | CXCL9/MIG (1.23E2 nM): -0.042 | CXCL10/IP-10 (1.23E2 nM): 0.037 | CXCL11/I-TAC (1.23E2 nM): -0.032 | Collagen I (1.23E2 nM): 0.025 | Collagen III (1.23E2 nM): 0.068 | EGFR (1.23E2 nM): -0.097 | M-CSF (1.23E2 nM): -0.068 | MMP-1 (1.23E2 nM): -0.042 | PAI-I (1.23E2 nM): -0.031 | Proliferation_72hr (1.23E2 nM): -0.191 | SRB (1.23E2 nM): 0.024 | TIMP-1 (1.23E2 nM): -0.068 | TIMP-2 (1.23E2 nM): 0.076 | CCL2/MCP-1 (1.37E1 nM): -0.043 | CD54/ICAM-1 (1.37E1 nM): -0.058 | CD106/VCAM-1 (1.37E1 nM): 0.069 | CXCL8/IL-8 (1.37E1 nM): -0.024 | CXCL9/MIG (1.37E1 nM): -0.012 | CXCL10/IP-10 (1.37E1 nM): 0.038 | CXCL11/I-TAC (1.37E1 nM): -0.002 | Collagen I (1.37E1 nM): 0.048 | Collagen III (1.37E1 nM): 0.094 | EGFR (1.37E1 nM): -0.067 | M-CSF (1.37E1 nM): -0.052 | MMP-1 (1.37E1 nM): 0.006 | PAI-I (1.37E1 nM): 0.00043 | Proliferation_72hr (1.37E1 nM): -0.130 | SRB (1.37E1 nM): 0.016 | TIMP-1 (1.37E1 nM): -0.033 | TIMP-2 (1.37E1 nM): 0.049 | CCL2/MCP-1 (3.33E3 nM): -0.117 | CD54/ICAM-1 (3.33E3 nM): -0.064 | CD106/VCAM-1 (3.33E3 nM): 0.050 | CXCL8/IL-8 (3.33E3 nM): -0.103 | CXCL9/MIG (3.33E3 nM): -0.054 | CXCL10/IP-10 (3.33E3 nM): 0.032 | CXCL11/I-TAC (3.33E3 nM): -0.022 | Collagen I (3.33E3 nM): 0.006 | Collagen III (3.33E3 nM): 0.051 | EGFR (3.33E3 nM): -0.111 | M-CSF (3.33E3 nM): -0.031 | MMP-1 (3.33E3 nM): -0.057 | PAI-I (3.33E3 nM): -0.062 | Proliferation_72hr (3.33E3 nM): -0.194 | SRB (3.33E3 nM): -0.008 | TIMP-1 (3.33E3 nM): -0.075 | TIMP-2 (3.33E3 nM): -0.041 | CCL2/MCP-1 (3.70E2 nM): -0.066 | CD54/ICAM-1 (3.70E2 nM): -0.075 | CD106/VCAM-1 (3.70E2 nM): 0.067 | CXCL8/IL-8 (3.70E2 nM): -0.100 | CXCL9/MIG (3.70E2 nM): -0.034 | CXCL10/IP-10 (3.70E2 nM): 0.040 | CXCL11/I-TAC (3.70E2 nM): -0.017 | Collagen I (3.70E2 nM): 0.018 | Collagen III (3.70E2 nM): 0.066 | EGFR (3.70E2 nM): -0.123 | M-CSF (3.70E2 nM): -0.056 | MMP-1 (3.70E2 nM): -0.053 | PAI-I (3.70E2 nM): -0.013 | Proliferation_72hr (3.70E2 nM): -0.187 | SRB (3.70E2 nM): 0.021 | TIMP-1 (3.70E2 nM): -0.069 | TIMP-2 (3.70E2 nM): 0.123 | CCL2/MCP-1 (4.12E1 nM): -0.141 | CD54/ICAM-1 (4.12E1 nM): -0.066 | CD106/VCAM-1 (4.12E1 nM): 0.066 | CXCL8/IL-8 (4.12E1 nM): -0.049
